From publication PMC7804942, “The amphibian peptide Yodha is virucidal for Zika and dengue viruses” (Scientific Reports, 2021)
Where two headings read alike, the source gives them in different places. Where a SMILES comes first, the peptide text is derived from it.

Columns and labels:
[1] = test system: human red blood cells; format: cell-based
Procedure: Single donor human red blood cells (Innovative Research) were washed in PBS (pH 7.4) with three times centrifugation at 500 × g for 5 min. Serially diluted frog peptides or OVA control peptide were prepared in V-bottom 96 well plates and mixed with washed 2 × 10^7 human RBC per each well for 1 h at 37 °C. PBS solution was used as a negative control (0% lysis), and 0.1% Triton X-100 in PBS was used as 100% lysis. The plates were centrifuged at 300 × g at 4 °C for 5 min to pellet the intact RBCs and supernatant of each well was measured by absorbance at 450 nm.

[2] = test system: ZIKV; assay: ZIKV entry into Vero cells, viral RNA by qRT-PCR; format: cell-based, Zika virus; details: ZIKV treated with 200 µM peptide for 30 min, MOI 0.5, 30 min infection, qRT-PCR normalised to GAPDH
Procedure: (§1) Next, we determined whether the observed Yodha peptide-induced decrease in viral titers was due to blocked viral entry. We reasoned that if the peptide directly kills or disrupts the envelope structure of ZIKV, this would prevent virus entry. To test this, we designed an experiment to measure virus entry, by allowing ZIKV to bind cells at 4 °C for 1 h followed by shifting the cells to 37 °C to permit virus entry (Fig. 2A). It has been shown that DENV2 entry occurs within 25 min by early endosome trafficking. Briefly, we exposed ZIKV to Yodha peptide and then allowed the virus to infect Vero cells for 30 min. We then measured viral RNA within the Vero cells by quantitative Real Time-PCR (qRT-PCR) (Fig. 2B). […] Next, we visualized ZIKV entry or lack thereof by immunofluorescence using antibodies against pan flavivirus E protein. […] We collected culture supernatants at 3, 24, 48, and 72 h after ZIKV infection to quantitate ZIKV by FFU assay (Fig. 2E). ZIKV was not detected at 3 h post-infection in both OVA- or Yodha-treated cells. […]
Figure 2 Yodha peptide inhibits ZIKV entry into cells. […] (B) ZIKV was treated with 200 µM of Yodha or control OVA peptide for 30 min and then used to infect Vero cells at a MOI of 0.5 and expression of ZIKV RNA was determined by quantitative RT-PCR (qRT-PCR). […] Error bars indicate the SEM of four technical replicates statistical significance was assessed by a 2-way ANOVA. […]

[3] = test system: ZIKV; assay: Post-infection treatment of ZIKV-infected Vero cells, FFU assay of supernatants; format: cell-based, Zika virus; details: 40 µM peptide added after infection, FFU of supernatant
Procedure: as §1
Figure 2 Yodha peptide inhibits ZIKV entry into cells. […] (B) ZIKV was treated with 200 µM of Yodha or control OVA peptide for 30 min and then used to infect Vero cells at a MOI of 0.5 and expression of ZIKV RNA was determined by quantitative RT-PCR (qRT-PCR). […] Error bars indicate the SEM of four technical replicates statistical significance was assessed by a 2-way ANOVA.

[4] = test system: MR766 ZIKV strain; assay: ZIKV MR766 infection of IFNAR KO mice, morbidity; format: in vivo, mouse; details: MR766, peptide-treated vs control group
Procedure: To assess morbidity, we switched to IFNAR KO mice and infected them with the MR766 ZIKV strain.
All mouse studies were approved by the IACUC of Emory University. C57BL/6 mice were purchased from The Jackson Laboratory. All mice were maintained in specified pathogen-free in accordance with the institutional guidelines of Emory University’s Animal Care and Use Committee. All control and experimental mice were age- and sex-matched. For viral titer assessment, Wild-type C57BL/6 J mice were injected with 2 mg of an anti-Ifnar1 blocking antibody (MAR1-5A3) by the intraperitoneal route 24hrs prior to infection. Mice were anesthetized with isoflurane and inoculated by the subcutaneous route into both rear footpads with 5 × 10^4 PFU of ZIKV PRVABC59 (1 × 10^5 PFU total inoculum per mouse) in a 20µL inoculum diluted in Hanks balanced salt solution (HBSS) supplemented with 1% heat-inactivated FBS. For analysis of morbidity by ZIKV viral infection, we infected 5- to 6-week-old IFNAR KO mice with ZIKV MR766 (100 PFU total inoculum per mouse). Mice were monitored daily for morbidity and mortality.

[5] = test system: DENV3; details: FFA
Procedure: Dengue virus strains 1, 2, 3 and 4 were treated with wither Yodha or control OVA peptide at (A) 50 µM (B) 160 µM concentration and the % of viral focus forming units were determined. (C) IC50 measurement of Yodha in DENVs infection by FFA. […] OVA peptide was used a negative control.
Peptides were incubated with ZIKV (100 FFU/well) for 2 h at 37 °C. This incubated mixture was used to infect Vero cells for 1.5 h at 37 °C. Cells and inoculum were overlaid with 2% methylcellulose solution (OptiMEM; Gibco) and incubated for 72 h at 37 °C. Cells were washed with PBS and fixed with a 1:1 methanol/acetone mixture for 30 min. Cells were blocked with 5% milk/PSB at room temperature for 20 min and incubated with primary antibody (anti-flavivirus mouse 4G2[10] antibody) for 2 h at 37 °C. Then, cells were incubated with secondary antibody (HRP-conjugated goat anti-mouse IgG, Cell Signaling) for 1 h at 37 °C. Cells were developed with TrueBlue Peroxidase Substrate (KPL). Plates were read on a CTL-ImmunoSpot S6 Micro analyzer.

Compound: CC[C@H](C)[C@H](NC(=O)[C@@H](NC(=O)CNC(=O)[C@H](CC(C)C)NC(=O)[C@H](Cc1ccccc1)NC(=O)[C@H](Cc1ccccc1)NC(=O)[C@H](CC(C)C)NC(=O)[C@H](CC(C)C)NC(=O)[C@H](CC(C)C)NC(=O)[C@H](CCSC)NC(=O)[C@@H](N)CO)[C@@H](C)O)C(=O)N[C@@H](CO)C(=O)N[C@@H](CC(C)C)C(=O)N[C@@H](CO)C(=O)N[C@@H](CC(C)C)C(=O)N[C@@H](CS)C(=O)N[C@@H](CCC(N)=O)C(=O)N[C@@H](CC(=O)O)C(=O)N[C@@H](CC(=O)O)C(=O)N[C@@H](CCC(N)=O)C(=O)N[C@@H](CCC(=O)O)C(=O)N[C@@H](CCCNC(=N)N)C(=O)N[C@@H](CS)C(=O)O [Yodha] (H-SMLLLFFLGTISLSLCQDDQERC-OH; N-terminus and C-terminus assumed)
- cytotoxicity against human erythrocytes (screen of the 12 hits) [1]: no cytotoxicity
- ZIKV RNA expressed compared to the OVA and virus-only controls [2]: 20%
- reduction in ZIKV production ([3]; 48 h post-infection): 60–70%
- reduction in ZIKV production ([3]; 72 h post-infection): 60–70%
- weight changes [4]: did not observe any differences
- survival ([4]; data not shown): did not observe any differences
- inhibition of DENV3 ([5]; 50 µM peptide): not DENV3
- inhibition of DENV3 ([5]; 160 µM peptide): very efficient
